Results on 14 molecules are retold here after PubChem BioAssay (NCI).

Holding throughout (test): inhibition of tumour cell growth, NCI panel, 48 h
In assay [1] the test system is ACHN renal.
For assay [2], the system named is HCC-2998 colon.
Assay [3] deals with HCT-116 colon.
Assay [4] deals with K-562 leukemia.
For assay [5], the system named is LOX IMVI melanoma.
For assay [6], the system named is MDA-MB-231 breast.
The test system of assay [7] is NCI-H226 lung.
Assay [8] concerns NCI-H460 lung.
Assay [9] concerns OVCAR-5 ovarian.
The test system of assay [10] is OVCAR-8 ovarian.
Assay [11] concerns RXF 393 renal.
The subject of assay [12] is SF-539 CNS.
Assay [13] relates to SK-MEL-5 melanoma.
Assay [14] relates to SNB-19 CNS.
For assay [15], the system named is SR leukemia.
In assay [16] the test system is SW-620 colon.
Assay [17] deals with T-47D breast.

Structures are written as SMILES.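 Dose response: 5 concentrations. Exposure: 48 h. Format: 96-well plates. Endpoint: linear interpolation; highest concentration if not reached. Abbreviation: GI50, concentration required for 50% inhibition of growth. The concentration for full growth arrest is given as TGI.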

As for `CSS(C)(=O)=O`, the TGI in assay [1] is 56.9 µM; in assay [2], 71.2 µM; in assay [3], greater than 100 µM; in assay [4], 78.6 µM; in assay [5], greater than 100 µM; in assay [6], greater than 100 µM. The TGI in assay [7] was 43.5 µM; in assay [8], greater than 100 µM; in assay [9], 49.1 µM; in assay [10] it was 68.8 µM; in assay [11], 59.6 µM; in [12], 37 µM. Moreover, the TGI is greater than 100 µM in assay [13]; greater than 100 µM in assay [14]; 38.6 µM in [15]; greater than 100 µM in [16]; 57.2 µM in [17].

For the molecule `ClCCc1ccccc1CC1=NCCc2ccccc21`, the TGI in assay [1] is greater than 100 µM; in [2], 62.5 µM; in assay [3] it was greater than 100 µM; in assay [4], greater than 100 µM; in assay [5], greater than 100 µM; in assay [6], 96.2 µM. The TGI in assay [7] is greater than 100 µM; in assay [8], 62.7 µM; in [9], greater than 100 µM; in assay [10], greater than 100 µM; in [11] it was 61.8 µM; in assay [12], greater than 100 µM. Moreover, the TGI in [13] is 47.9 µM; in [14], greater than 100 µM; in assay [15], greater than 100 µM; in assay [16] it was greater than 100 µM; in [17], greater than 100 µM.

Regarding `N#CC1=C(S)N(C2OC(CO)C(O)C(O)C2O)C(c2ccccc2)=CC1c1cccs1` (centres undefined), the TGI was 40.8 µM in [1]; 44.8 µM in [2]; 75.7 µM in [3]; greater than 100 µM in assay [4]; 36.9 µM in assay [5]; 63.5 µM in [6]. Also, the TGI was 41.3 µM in assay [7]; 32.9 µM in assay [8]; greater than 100 µM in [9]; 65.9 µM in [10]; 40 µM in [11]; 38.7 µM in assay [12]. The TGI in [13] was 31 µM; in assay [14], greater than 10 µM; in assay [15], greater than 100 µM; in [16], 65 µM; in assay [17] it was 65.7 µM.

As to `CC(C)C[C@H](NC(=O)CCc1cccc2ccccc12)B(O)O`, the TGI was greater than 100 µM in assay [1]; 2.62 µM in assay [2]; 2.91 µM in assay [3]; 21.4 µM in [4]; 1.77 µM in [5]; 15.2 µM in [6]. Further, the TGI in assay [7] amounted to 0.392 µM; in [8], 19.5 µM; in assay [9], 6.72 µM; in [10], 19.6 µM; in assay [11], 2.03 µM; in assay [12] it was 1.21 µM. Further, the TGI in [13] is 1.85 µM; in assay [14], greater than 100 µM; in assay [15], 2.2 µM; in [16], 3.26 µM; in [17] it was 4.23 µM.

As for `COC(=O)C1SC[C@H]2C(=O)N(c3ccccc3)C(=O)N12` (some centres undefined), the TGI in assay [1], in assay [2], in assay [3], in [4], in assay [5] and in [6] was greater than 100 µM throughout. In addition, the TGI in assay [7], in assay [8], in assay [9], in assay [10], in assay [11] and in assay [12] was greater than 100 µM throughout. The TGI in [13], in [14], in [15], in assay [16] and in assay [17] was greater than 100 µM throughout.

Consider `Cc1ccc(NC(=S)N=Nc2c(O)[nH]c3ccccc23)cc1`, for which the TGI in assay [1], in assay [2], in [3], in assay [4], in assay [5] and in assay [6] was greater than 100 µM each time. The TGI in [7], in assay [8], in assay [9], in assay [10], in [11] and in assay [12] was greater than 100 µM in each case. Further, the TGI in assay [13], in assay [14], in [15], in assay [16] and in assay [17] was greater than 100 µM in each case.

With `Cc1cc(=O)n2nc(CSc3n[nH]c(=S)s3)sc2n1`, the TGI in assay [1], in assay [2], in [3], in assay [4], in assay [5] and in assay [6] was greater than 100 µM throughout. The TGI in [7], in [8], in assay [9], in assay [10], in assay [11] and in assay [12] was greater than 100 µM in each case. Moreover, the TGI in assay [13], in assay [14], in assay [15], in assay [16] and in [17] was greater than 100 µM throughout.

As for `C[C@H]1[C@H](C)CC[C@]2(C(=O)OC3OC(CO)C(O)C(O)C3O)CC[C@]3(C)C(=CC[C@@H]4[C@@]5(C)C[C@@H](O)[C@@H]6OC(=O)c7cc(O)c(O)c(O)c7-c7c(cc(O)c(O)c7O)C(=O)OC[C@]6(CO)[C@@H]5CC[C@]43C)[C@H]12` (some centres undefined), the TGI in assay [1] was greater than 100 µM; in assay [2], greater than 100 µM; in assay [3], greater than 100 µM; in [4] it was greater than 100 µM; in [5], 25.8 µM; in [6] it was 26.4 µM. The TGI in assay [7], in assay [8], in [9], in assay [10], in [11] and in [12] was greater than 100 µM each time. For the same molecule, the TGI was greater than 100 µM in [13]; greater than 77.9 µM in assay [14]; 73.3 µM in assay [15]; greater than 63.3 µM in [16]; greater than 100 µM in assay [17].

Regarding `CCSc1nc(C)nc2c1sc1nc3ccccc3n12`, the TGI in [1], in [2], in assay [3], in [4], in assay [5] and in [6] was greater than 100 µM each time. For the same molecule, the TGI in [7], in assay [8], in [9], in assay [10], in [11] and in [12] was greater than 100 µM each time. Besides, the TGI in [13], in assay [14], in [15], in assay [16] and in [17] was greater than 100 µM throughout.

For `CCOC(=O)/C=C(/C(=O)OCC)n1ccc(=O)n(CC(=O)OCC)c1=O`, the TGI in [1] is 1.76 µM; in [2] it was 5.04 µM; in assay [3], 2.57 µM; in assay [4] it was 1.62 µM; in [5] it was 1.81 µM; in assay [6], 4.41 µM. Besides, the TGI in assay [7] worked out at 5.31 µM; in assay [8] it was 15.1 µM; in [9], 3.19 µM; in [10], 6.41 µM; in [11], 2.52 µM; in assay [12], 7.88 µM. Further, the TGI in assay [13] came to 6.21 µM; in assay [14] it was 25.4 µM; in [15] it was 3.61 µM; in [16], 0.707 µM; in [17], 2.55 µM. In addition, the GI50 in assay [5] was 0.422 µM.

For the molecule `C[C@]12CC/C(=N\O)C=C1CC[C@@H]1[C@@H]2CC[C@]2(C)C(=N/O)/C(=C/c3ccncc3)C[C@@H]12`, the TGI is greater than 100 µM in assay [1]; 59.7 µM in assay [2]; 47.4 µM in assay [3]; greater than 100 µM in assay [4]; greater than 100 µM in assay [5]; greater than 100 µM in [6]. The TGI was 87.3 µM in assay [7]; 85 µM in assay [8]; greater than 100 µM in assay [9]; greater than 100 µM in assay [10]; greater than 100 µM in assay [11]; greater than 100 µM in [12]. Also, the TGI in assay [13] was 23 µM; in assay [14], greater than 100 µM; in assay [15], 62.2 µM; in assay [16], greater than 100 µM; in assay [17], 88.5 µM.

As for `Nc1ncnc2c1cnn2COCC(O)CO` (centres undefined), the TGI in assay [1], in assay [2], in assay [3], in [4], in assay [5] and in assay [6] was greater than 100 µM throughout. Further, the TGI in [7], in [8], in [9], in assay [10], in [11] and in assay [12] was greater than 100 µM in each case. Moreover, the TGI in assay [13], in assay [14], in assay [15], in [16] and in assay [17] was greater than 100 µM throughout.

Regarding `C[C@H](CO)C1=CC(C#C[Si](C)(C)C)N(C(=O)Oc2ccccc2)c2ccccc21` (some centres undefined), the TGI in [1] was 26.8 µM; in assay [2] it was 30.6 µM; in assay [3] it was 22.7 µM; in assay [4], greater than 100 µM; in assay [5], 33.5 µM; in assay [6], 23.4 µM. The TGI in assay [7] amounted to 34.6 µM; in assay [8], 28.6 µM; in assay [9], 30.5 µM; in assay [10] it was 42.9 µM; in [11], 23 µM; in [12], 33.9 µM. The TGI in assay [13] was 26.6 µM; in assay [14] it was 29.8 µM; in assay [15], 82.5 µM; in [16] it was greater than 100 µM; in [17], 38.1 µM.

With `Cn1c(O)c(C=Nc2ccc(Cl)cc2Cl)c(=O)n(C)c1=O`, the TGI in [1], in assay [2], in [3], in [4], in [5] and in assay [6] was greater than 100 µM in each case. In addition, the TGI in assay [7], in [8], in assay [9], in assay [10], in [11] and in assay [12] was greater than 100 µM each time. For the same molecule, the TGI in assay [13], in [14], in assay [15], in assay [16] and in assay [17] was greater than 100 µM in each case.
